Results published in PMC6446070, “Discovery of novel isoflavone derivatives as AChE/BuChE dual-targeted inhibitors: synthesis, biological evaluation and molecular modelling” (Journal of Enzyme Inhibition and Medicinal Chemistry, 2017).
Like-named read-outs stand apart in the source and are kept apart here.

Experiments:
[1] = biological target: T1, AChE (Rattus norvegicus, UniProt P37136); assay: biochemical; details: for inhibition at 50 µM: read-out: Inhibition % at 50 μM AChE
T1 construct: AChE (0.5 U/mg) was extracted from rat cortex; from tissue; host or cells: rat cortex
T1 sequence (P37136 32-614): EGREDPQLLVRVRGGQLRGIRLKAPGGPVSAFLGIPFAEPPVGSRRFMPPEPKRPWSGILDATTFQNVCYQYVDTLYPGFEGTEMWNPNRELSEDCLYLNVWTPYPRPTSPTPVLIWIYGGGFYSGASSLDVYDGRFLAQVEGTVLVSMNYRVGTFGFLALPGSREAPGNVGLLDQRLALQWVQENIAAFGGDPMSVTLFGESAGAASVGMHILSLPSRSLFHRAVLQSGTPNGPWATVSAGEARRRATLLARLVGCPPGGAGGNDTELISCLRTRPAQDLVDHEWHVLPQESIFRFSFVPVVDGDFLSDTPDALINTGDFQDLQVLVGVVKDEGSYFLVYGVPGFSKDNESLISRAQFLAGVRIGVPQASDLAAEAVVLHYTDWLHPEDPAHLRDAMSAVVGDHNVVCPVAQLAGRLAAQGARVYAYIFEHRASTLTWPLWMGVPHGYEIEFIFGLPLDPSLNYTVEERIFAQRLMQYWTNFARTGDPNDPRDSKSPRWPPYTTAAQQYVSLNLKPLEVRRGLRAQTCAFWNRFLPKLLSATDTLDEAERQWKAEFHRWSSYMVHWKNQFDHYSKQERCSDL
Method: (§1) To measure in vitro AChE/BuChE activity, modified Ellman's method[27–30] was performed using a 96-well plate reader (BioTek ELx808). AChE (0.5 U/mg) was extracted from rat cortex while BuChE (3.4 U/mg) was obtained from human plasma. Each well contained 50 μl potassium phosphate buffer (KH2PO4/K2HPO4, 0.1 M, pH 8.0), 25 μl test compounds and 25 μl enzyme. […] They were pre-incubated for 60 min at 37 °C, and then 125 μl 5,5′-dithiobis-2-nitrobenzoic acid (DNTB, 3 mM in buffer) was added. […] A control experiment was performed under the same condition without any inhibitor and the blank contained buffer, water, DTNB and substrate. The described method was also performed for BuChE bioassay.

[2] = biological target: T2, BuChE (Homo sapiens, UniProt P06276); assay: biochemical; details: for inhibition at 50 µM: read-out: Inhibition % at 50 μM BuChE
T2 construct: BuChE (3.4 U/mg) was obtained from human plasma; from tissue; host or cells: human plasma
T2 sequence (P06276 29-602): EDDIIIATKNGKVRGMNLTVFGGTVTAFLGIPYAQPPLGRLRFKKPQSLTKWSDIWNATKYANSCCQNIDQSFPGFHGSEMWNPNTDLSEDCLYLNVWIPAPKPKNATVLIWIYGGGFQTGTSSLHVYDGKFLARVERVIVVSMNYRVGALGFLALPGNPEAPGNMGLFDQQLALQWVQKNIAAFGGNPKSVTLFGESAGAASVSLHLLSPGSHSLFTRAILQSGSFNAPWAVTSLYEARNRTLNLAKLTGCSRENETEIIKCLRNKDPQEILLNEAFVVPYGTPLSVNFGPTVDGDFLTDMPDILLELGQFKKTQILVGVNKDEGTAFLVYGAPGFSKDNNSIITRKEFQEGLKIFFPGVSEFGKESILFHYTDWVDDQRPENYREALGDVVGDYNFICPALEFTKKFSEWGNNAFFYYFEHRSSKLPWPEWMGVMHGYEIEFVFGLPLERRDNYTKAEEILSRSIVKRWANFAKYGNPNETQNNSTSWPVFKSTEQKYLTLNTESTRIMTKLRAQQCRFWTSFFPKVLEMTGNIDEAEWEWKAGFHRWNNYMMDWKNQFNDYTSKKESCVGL
Method: as §1

[3] = 50 μM compound, AChE extracted from rat cortex, pre-incubated 60 min at 37 °C
[4] = 50 μM compound, BuChE from human plasma, pre-incubated 60 min at 37 °C
[5] = BuChE from human plasma, read-out: IC50 (μM) BuChE

Row | SMILES | inhibition at 50 µM [1, 3] [%] | inhibition at 50 µM [2, 4] [%] | IC50 [2, 5] [µM] | also measured
1 | COc1ccc(-c2coc3cc(OCCN(C)Cc4ccccc4)ccc3c2=O)cc1 [compound 10, 7-(2-(Benzyl(methyl)amino)ethoxy)-3-(4-methoxyphenyl)-4H-chromen-4-one] | 3.34 | 2.72 |  | 
2 | COc1ccc(-c2coc3cc(OCCC(=O)N4CCCCC4)ccc3c2=O)cc1 [compound 18, 3-(4-Methoxyphenyl)-7-(3-oxo-3-(piperidin-1-yl)propoxy)-4H-chromen-4-one] | -2.36 | 5.59 |  | 
3 | O=c1c(-c2ccc(OCCN3CCCCC3)cc2)coc2cc(OCCN3CCCCC3)ccc12 [compound 16, 7-(2-(Piperidin-1-yl)ethoxy)-3-(4-(2-(piperidin-1-yl)ethoxy)phenyl)-4H-chrom en-4-one] | 100 | 99.7 | 5.92 | IC50 ([1]; AChE extracted from rat cortex): 4.6 µM
4 | CCN(C)CCCCOc1ccc2c(=O)c(-c3ccc(OC)cc3)coc2c1 [compound 6, 7-(4-(Ethyl(methyl)amino)butoxy)-3-(4-methoxyphenyl)-4H-chromen-4-one] | 63.8 | 94.8 |  | 
5 | C#CCNC(=O)OCCOc1ccc2c(=O)c(-c3ccc(OC)cc3)coc2c1 [compound 20, 2-((3-(4-Methoxyphenyl)-4-oxo-4H-chromen-7-yl)oxy)ethyl prop-2-yn-1-ylc-arbamate] |  |  |  | Inhibition % at 50 μM AChE [1, 3]: −4.84%; Inhibition % at 50 μM BuChE [2, 4]: −5.49%
6 | COc1ccc(-c2coc3cc(OCCCN4CCCCC4)ccc3c2=O)cc1 [compound 2, 3-(4-Methoxyphenyl)-7-(3-(piperidin-1-yl)propoxy)-4H-chromen-4-one] | 28.3 | 97 | 23.2 | 
7 | COc1ccc(-c2coc3cc(OCCNC45CC6C[C@@](C)(C4)C[C@](C)(C6)C5)ccc3c2=O)cc1 [compound 13, 7-(2-(((3 R,5 S,7r)-3,5-dimethyladamantan-1-yl)amino)ethoxy)-3-(4-methoxyphenyl)-4H-chromen-4-one] |  |  |  | Inhibition % at 50 μM AChE [1, 3]: 17.61%; Inhibition % at 50 μM BuChE [2, 4]: −6.62%
8 | C#CCNCCOc1ccc2c(=O)c(-c3ccc(OC)cc3)coc2c1 [compound 12, 3-(4-Methoxyphenyl)-7-(2-(prop-2-yn-1-ylamino)ethoxy)-4H-chromen-4-one] | 5.47 | -16.9 |  | 
9 | COc1ccc(-c2coc3cc(OCCCCNCCc4c[nH]c5ccc(OC)cc45)ccc3c2=O)cc1 [compound 9, 7-(4((2-(5-Methoxy-1H-indol-3-yl)ethyl)amino)butoxy)-3-(4-methoxyphenyl)-4H-chromen-4-one] | 0.72 | 37.9 |  | 
10 | COc1ccc(-c2coc3cc(OCCN(Cc4ccccc4)Cc4ccccc4)ccc3c2=O)cc1 [compound 11, 7-(2-(Dibenzylamino)ethoxy)-3-(4-methoxyphenyl)-4H-chromen-4-one] | -6.27 | -18.5 |  | 
11 | COc1ccc(-c2coc3cc(OCCCCN4CCCCC4)ccc3c2=O)cc1 [compound 3, 3-(4-Methoxyphenyl)-7-(4-(piperidin-1-yl)butoxy)-4-H-chromen-4-one] |  |  | 11.1 | Inhibition % at 50 μM AChE [1, 3]: 85.65%; IC50 ([1]; AChE extracted from rat cortex): 46.4 µM; Inhibition % at 50 μM BuChE [2, 4]: 98.11%
12 | COc1ccc(-c2coc3cc(OCCCNCCc4c[nH]c5ccc(OC)cc45)ccc3c2=O)cc1 [compound 8, 7-(3-((2-(5-Methoxy-1H-indol-3-yl)ethyl)amino)propoxy)-3-(4-methoxyphenyl)-4H-chromen-4-one] | 2.42 | 60.6 | 15.6 | 
13 | COc1ccc(-c2coc3cc(OCC(=O)N4CCCCC4)ccc3c2=O)cc1 [compound 17, 3-(4-Methoxyphenyl)-7-(2-oxo-2-(piperidin-1-yl)ethoxy)-4H-chromen4-one] | 0.54 | -2.83 |  | 
14 | O=c1c(-c2ccc(O)cc2)coc2cc(OCCN3CCCCC3)ccc12 [compound 14, 3-(4-Hydroxyphenyl)-7-(2-(piperidin-1-yl)ethoxy)-4H-chromen-4-one] | 79.4 | 99.9 | 7.66 | IC50 ([1]; AChE extracted from rat cortex): 9.75 µM
15 | O=c1c(-c2ccc(O)cc2)coc2cc(OCCN3CCCC3)ccc12 [compound 15, 3-(4-Hyroxyphenyl)-7-(2-(pyrrolidin-1-yl)ethoxy)-4H-chromen-4-one] |  |  | 7.19 | Inhibition % at 50 μM AChE [1, 3]: 75.22%; Inhibition % at 50 μM BuChE [2, 4]: 99.88%
16 | COc1ccc(-c2coc3cc(OCCOC(=O)N4CCCCC4)ccc3c2=O)cc1 [compound 19, 2-((3-(4-Methoxyphenyl)-4-oxo-4H-chromen-7-yl)oxy)ethyl piperidine-1-carboxylate] |  |  |  | inhibition at 50 µM [1]: -11.6%; IC50 [2]: 9.59 µM; inhibition at 50 µM [2]: 53%
17 | CCN(C)CCCOc1ccc2c(=O)c(-c3ccc(OC)cc3)coc2c1 [compound 5, 7-(3-(Ethyl(methyl)amino)propoxy)-3-(4-methoxyphenyl)-4H-chromen-4-one] | 25.4 | 91.3 |  | 
18 | COc1ccc(-c2coc3cc(OCCN4CCCCC4)cc(O)c3c2=O)cc1 [compound 1, 5-Hydroxy-3-(4-mehtoxyphenyl)-7-(2-(piperidin-1-yl)ethoxy)-4H-chromen-4-one] |  |  | 4.12 | Inhibition % at 50 μM AChE [1, 3]: 71.10%; IC50 ([1]; AChE extracted from rat cortex): 10.3 µM; Inhibition % at 50 μM BuChE [2, 4]: 95.74%
19 | COc1ccc(-c2coc3cc(OCCNCCc4c[nH]c5ccc(OC)cc45)ccc3c2=O)cc1 [compound 7, 7-(2-((2-(5-Methoxy-1H-indol-3-yl)ethyl)amino)ethoxy)-3-(4-methoxyphenyl)-4H-chr-omen-4-one] |  |  |  | Inhibition % at 50 μM AChE [1, 3]: 3.68%; Inhibition % at 50 μM BuChE [2, 4]: 45.74%
20 | CCN(C)CCOc1ccc2c(=O)c(-c3ccc(OC)cc3)coc2c1 [compound 4, 7-(2-(Ethyl(methyl)amino)ethoxy)-3-(4-methoxyphenyl)-4H-chromen-4-one] | 58.7 | 84.1 |  | 
21 | COc1ccc(-c2coc3cc(OCCN4CCCCC4C)ccc3c2=O)cc1 (stereo not shown) [G] |  |  | 3.37 | IC50 ([1]; AChE extracted from rat cortex): 1.47 µM
22 | CC(C)NP(=O)(NC(C)C)OP(=O)(NC(C)C)NC(C)C [Iso-OMPA, tetraisopropyl pyrophosphoramide, reference compound] |  |  |  | inhibition at 50 µM [2]: 94.3%
